Molecular target: T1, bovine α-crystallin (Bos taurus, UniProt P02470+P02510)
T1 construct: gene CRYAA; native hetero-oligomer purified from bovine lenses (cows under two years), mixture of alphaA and alphaB subunits at about 3:1; no tag
T1 sequence (P02470 1-173): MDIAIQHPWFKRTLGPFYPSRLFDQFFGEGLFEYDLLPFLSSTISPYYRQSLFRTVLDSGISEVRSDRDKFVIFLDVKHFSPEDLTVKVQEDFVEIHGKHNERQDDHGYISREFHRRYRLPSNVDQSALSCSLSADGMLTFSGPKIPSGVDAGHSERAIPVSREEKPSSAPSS
T1 sequence (P02510 1-175): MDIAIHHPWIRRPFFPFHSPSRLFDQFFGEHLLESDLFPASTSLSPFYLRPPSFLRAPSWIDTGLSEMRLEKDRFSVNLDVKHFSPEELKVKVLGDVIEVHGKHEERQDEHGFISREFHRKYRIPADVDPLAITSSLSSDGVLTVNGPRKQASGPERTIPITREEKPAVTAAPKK
Experiment: turbidity at […] nm of GdnHCl-induced aggregation at […] °C
Settings: 5 µM timolol, protein 0.6 mg/mL, 0.1 M phosphate pH 7.4, 60 °C, enhancer of aggregation, direct binding not measured

## CC(C)(C)NC[C@H](O)COc1nsnc1N1CCOCC1 [timolol]
  aggregation extent (fold): ~ 3 fold

— PMC4157036, “Does Long-Term Administration of a Beta-Blocker (Timolol) Induce Fibril-Based Cataract Formation In-vivo?” (Iranian Journal of Pharmaceutical Research : IJPR, 2014)
